Experimental data published in PubChem BioAssay AID256 (DTP/NCI, 2004).
Several values for one entry are separate records, joined by “and”; a condition that tells them apart may be missing. Identical values can stand only once. Toxic doses and inconclusive results are not listed.

Test system: CD2F1 mice, L1210 leukemia ip, survival T/C
Experiment: NCI In Vivo Anticancer Drug Screen. Data for tumor model L1210 Leukemia (intraperitoneal) in CD2F1 (CDF1) mice
Conditions: endpoint: mean survival time, higher = longer survival
Outline: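 Vehicle-treated tumor-bearing mice served as controls (C) for compound-treated mice (T). Reported figure is T divided by C.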

[1] = dose: 50.0 mg/kg/injection, schedule: Q01DX009 (ip), vehicle: saline
[2] = dose: 100.0 mg/kg/injection, schedule: Q01DX009 (ip), vehicle: saline
[3] = dose: 200.0 mg/kg/injection, schedule: Q01DX009 (ip), vehicle: saline
[4] = dose: 100.0 mg/kg/injection, schedule: Q04DX003 (ip), vehicle: saline with Tween-80
[5] = dose: 200.0 mg/kg/injection, schedule: Q04DX003 (ip), vehicle: saline with Tween-80

## Nc1nc(=O)n(C2OC(CO)C(O)C2O)cc1F (centres undefined)
dose: 0.25 mg/kg/injection, schedule: Q01DX009 (ip), vehicle: saline
  T/C: 121 % of control
dose: 0.5 mg/kg/injection, schedule: Q01DX009 (sc), vehicle: saline
  T/C: 97 % of control
dose: 1.0 mg/kg/injection, schedule: Q03HX024 (ip), vehicle: saline
  T/C: 346 % of control
dose: 2.0 mg/kg/injection, schedule: Q01DX009 (sc), vehicle: saline
  T/C: 121 % of control
dose: 4.0 mg/kg/injection, schedule: Q01DX009 (ip), vehicle: saline
  T/C: 157 % of control
dose: 4.0 mg/kg/injection, schedule: Q08DX002 (ip), vehicle: saline
  T/C: 106 % of control
dose: 8.0 mg/kg/injection, schedule: Q01DX009 (sc), vehicle: saline
  T/C: 152 % of control
dose: 8.0 mg/kg/injection, schedule: Q03HX024 (ip), vehicle: saline
  T/C: 540 % of control
dose: 12.5 mg/kg/injection, schedule: Q01DX009 (ip), vehicle: saline
  T/C: 218 % of control and 227 % of control
dose: 16.0 mg/kg/injection, schedule: Q01DX009 (ip), vehicle: saline
  T/C: 186 % of control and 194 % of control
dose: 16.0 mg/kg/injection, schedule: Q03HX016 (ip), vehicle: saline
  T/C: 248 % of control
dose: 16.0 mg/kg/injection, schedule: Q03HX024 (oral), vehicle: saline
  T/C: 327 % of control
dose: 16.0 mg/kg/injection, schedule: Q08DX002 (ip), vehicle: saline
  T/C: 114 % of control
dose: 18.8 mg/kg/injection, schedule: Q01DX008 (ip), vehicle: saline
  T/C: 189 % of control
dose: 18.8 mg/kg/injection, schedule: Q01DX008 (oral), vehicle: saline
  T/C: 167 % of control
dose: 20.0 mg/kg/injection, schedule: Q01DX007 (ip), vehicle: saline
  T/C: 195 % of control
dose: 20.0 mg/kg/injection, schedule: Q01DX009 (ip), vehicle: saline
  T/C: 187 % of control
dose: 20.0 mg/kg/injection, schedule: Q04DX003 (ip), vehicle: saline
  T/C: 152 % of control
dose: 25.0 mg/kg/injection, schedule: Q01DX009 (ip), vehicle: saline
  T/C: 215 % of control and 233 % of control
dose: 32.0 mg/kg/injection, schedule: Q01DX009 (ip), vehicle: saline
  T/C: 244 % of control
dose: 32.0 mg/kg/injection, schedule: Q01DX009 (oral), vehicle: saline
  T/C: 163 % of control
dose: 32.0 mg/kg/injection, schedule: Q01DX009 (sc), vehicle: saline
  T/C: 196 % of control
dose: 32.0 mg/kg/injection, schedule: Q03HX008 (ip), vehicle: saline
  T/C: 120 % of control
dose: 37.5 mg/kg/injection, schedule: Q01DX008 (ip), vehicle: saline
  T/C: 169 % of control
dose: 37.5 mg/kg/injection, schedule: Q01DX008 (oral), vehicle: saline
  T/C: 175 % of control
dose: 40.0 mg/kg/injection, schedule: Q01DX007 (ip), vehicle: saline
  T/C: 204 % of control
dose: 40.0 mg/kg/injection, schedule: Q01DX009 (ip), vehicle: saline
  T/C: 229 % of control
dose: 40.0 mg/kg/injection, schedule: Q04DX003 (ip), vehicle: saline
  T/C: 152 % of control
[1]
  T/C: 153 % of control and 166 % of control
dose: 64.0 mg/kg/injection, schedule: Q01DX009 (ip), vehicle: saline
  T/C: 221 % of control
dose: 64.0 mg/kg/injection, schedule: Q01DX009 (oral), vehicle: saline
  T/C: 176 % of control
dose: 64.0 mg/kg/injection, schedule: Q03HX016 (ip), vehicle: saline
  T/C: 377 % of control
dose: 64.0 mg/kg/injection, schedule: Q03HX024 (oral), vehicle: saline
  T/C: 90 % of control
dose: 64.0 mg/kg/injection, schedule: Q08DX002 (ip), vehicle: saline
  T/C: 116 % of control
dose: 75.0 mg/kg/injection, schedule: Q01DX008 (oral), vehicle: saline
  T/C: 202 % of control
dose: 75.0 mg/kg/injection, schedule: Q04DX003 (ip), vehicle: saline
  T/C: 182 % of control
dose: 80.0 mg/kg/injection, schedule: Q01DX007 (ip), vehicle: saline
  T/C: 161 % of control
dose: 80.0 mg/kg/injection, schedule: Q01DX009 (ip), vehicle: saline
  T/C: 117 % of control
dose: 80.0 mg/kg/injection, schedule: Q04DX003 (ip), vehicle: saline
  T/C: 157 % of control
[2]
  T/C: 113 % of control and 115 % of control
dose: 128.0 mg/kg/injection, schedule: Q01DX001 (ip), vehicle: saline
  T/C: 120 % of control
dose: 128.0 mg/kg/injection, schedule: Q01DX001 (sc), vehicle: saline
  T/C: 123 % of control
dose: 128.0 mg/kg/injection, schedule: Q01DX009 (ip), vehicle: saline
  T/C: 114 % of control
dose: 128.0 mg/kg/injection, schedule: Q01DX009 (sc), vehicle: saline
  T/C: 88 % of control
dose: 128.0 mg/kg/injection, schedule: Q04DX003 (ip), vehicle: saline
  T/C: 163 % of control
dose: 128.0 mg/kg/injection, schedule: Q04DX003 (oral), vehicle: saline
  T/C: 158 % of control
dose: 150.0 mg/kg/injection, schedule: Q01DX001 (ip), vehicle: saline
  T/C: 110 % of control
dose: 150.0 mg/kg/injection, schedule: Q01DX001 (oral), vehicle: saline
  T/C: 115 % of control
dose: 150.0 mg/kg/injection, schedule: Q04DX003 (ip), vehicle: saline
  T/C: 151 % of control
[3]
  T/C: 101 % of control
dose: 256.0 mg/kg/injection, schedule: Q01DX009 (oral), vehicle: saline
  T/C: 109 % of control
dose: 256.0 mg/kg/injection, schedule: Q04DX003 (oral), vehicle: saline
  T/C: 171 % of control
dose: 300.0 mg/kg/injection, schedule: Q01DX001 (oral), vehicle: saline
  T/C: 115 % of control
dose: 300.0 mg/kg/injection, schedule: Q04DX003 (ip), vehicle: saline
  T/C: 239 % of control
dose: 512.0 mg/kg/injection, schedule: Q01DX001 (sc), vehicle: saline
  T/C: 153 % of control
dose: 512.0 mg/kg/injection, schedule: Q04DX003 (oral), vehicle: saline
  T/C: 206 % of control
dose: 600.0 mg/kg/injection, schedule: Q01DX001 (ip), vehicle: saline
  T/C: 172 % of control
dose: 600.0 mg/kg/injection, schedule: Q04DX003 (ip), vehicle: saline
  T/C: 259 % of control
dose: 1024.0 mg/kg/injection, schedule: Q01DX001 (ip), vehicle: saline
  T/C: 161 % of control
dose: 1024.0 mg/kg/injection, schedule: Q01DX001 (sc), vehicle: saline
  T/C: 239 % of control
dose: 1024.0 mg/kg/injection, schedule: Q04DX003 (ip), vehicle: saline
  T/C: 286 % of control
dose: 1024.0 mg/kg/injection, schedule: Q04DX003 (oral), vehicle: saline
  T/C: 122 % of control
dose: 1024.0 mg/kg/injection, schedule: Q08DX002 (ip), vehicle: saline
  T/C: 250 % of control
dose: 1200.0 mg/kg/injection, schedule: Q01DX001 (ip), vehicle: saline
  T/C: 183 % of control

## COc1ccc2nc3c4ccccc4scc-3c2c1
dose: 25.0 mg/kg/injection, schedule: Q01DX009 (ip), vehicle: Klucel (hydroxypropylcellulose) (HPC)
  T/C: 109 % of control
dose: 50.0 mg/kg/injection, schedule: Q01DX009 (ip), vehicle: Klucel (hydroxypropylcellulose) (HPC)
  T/C: 97 % of control
dose: 100.0 mg/kg/injection, schedule: Q01DX009 (ip), vehicle: Klucel (hydroxypropylcellulose) (HPC)
  T/C: 110 % of control

## COc1ccc(CCN)cc1OC
[1]
  T/C: 94 % of control
[2]
  T/C: 94 % of control
[4]
  T/C: 97 % of control
[3]
  T/C: 97 % of control
[5]
  T/C: 93 % of control

## CC(C)c1ccc(C(=O)O)cc1S(=O)(=O)Cl
dose: 25.0 mg/kg/injection, schedule: Q04DX003 (ip), vehicle: saline
  T/C: 98 % of control
dose: 50.0 mg/kg/injection, schedule: Q04DX003 (ip), vehicle: saline
  T/C: 109 % of control
dose: 100.0 mg/kg/injection, schedule: Q04DX003 (ip), vehicle: saline
  T/C: 100 % of control and 107 % of control

## C=C[Si](C)(C=C)C=C
[2]
  T/C: 95 % of control
dose: 100.0 mg/kg/injection, schedule: Q04DX002 (ip), vehicle: saline
  T/C: 91 % of control
[3]
  T/C: 97 % of control
dose: 200.0 mg/kg/injection, schedule: Q04DX002 (ip), vehicle: saline
  T/C: 98 % of control
dose: 400.0 mg/kg/injection, schedule: Q01DX009 (ip), vehicle: saline
  T/C: 93 % of control
dose: 400.0 mg/kg/injection, schedule: Q04DX002 (ip), vehicle: saline
  T/C: 98 % of control

## NC(=O)c1c(F)cccc1Cl
dose: 100.0 mg/kg/injection, schedule: Q01DX009 (ip), vehicle: saline with Tween-80
  T/C: 102 % of control
[4]
  T/C: 101 % of control
dose: 200.0 mg/kg/injection, schedule: Q01DX009 (ip), vehicle: saline with Tween-80
  T/C: 105 % of control
[5]
  T/C: 98 % of control
dose: 400.0 mg/kg/injection, schedule: Q01DX009 (ip), vehicle: saline with Tween-80
  T/C: 102 % of control
dose: 400.0 mg/kg/injection, schedule: Q04DX003 (ip), vehicle: saline with Tween-80
  T/C: 106 % of control

## Clc1nnc(Cl)c(Cl)c1Cl
dose: 1.56 mg/kg/injection, schedule: Q04DX003 (ip), vehicle: saline with Tween-80
  T/C: 88 % of control
dose: 3.13 mg/kg/injection, schedule: Q04DX003 (ip), vehicle: saline with Tween-80
  T/C: 88 % of control
